ChEMBL document CHEMBL2146412, “Antibacterial spirobisnaphthalenes from the North American cup fungus Urnula craterium” (J Nat Prod, 2012)
≈ marks a conversion by molar mass, not a printed value. Calls of active or inactive are those of the source. No cut-off for these calls is given here.

Experiments:
J774.A1 = assay: Cytotoxicity against mouse J774A1 cells by trypan blue exclusion assay; format: cell-based
Staphylococcus aureus [1] = assay: Antibacterial activity against Staphylococcus aureus ATCC 29213; format: functional
Staphylococcus aureus [2] = assay: Antibacterial activity against methicillin-resistant Staphylococcus aureus MW2; format: functional
Enterococcus faecium = assay: Antibacterial activity against vancomycin-resistant Enterococcus faecium VRE1; format: functional
Enterococcus faecalis = assay: Antibacterial activity against Enterococcus faecalis ATCC 29212; format: functional
Streptococcus pyogenes = assay: Antibacterial activity against Streptococcus pyogenes UWL; format: functional
Escherichia coli = assay: Antibacterial activity against Escherichia coli; format: functional, organism-based
Pseudomonas aeruginosa = assay: Antibacterial activity against Pseudomonas aeruginosa; format: functional, organism-based

| SMILES | IC50 (J774.A1) | MIC (Staphylococcus aureus [1]) | MIC (Staphylococcus aureus [2]) | MIC (Enterococcus faecium) | MIC (Enterococcus faecalis) | MIC (Streptococcus pyogenes) | Activity (Escherichia coli) | Activity (Pseudomonas aeruginosa) |
| --- | --- | --- | --- | --- | --- | --- | --- | --- |
| COc1ccc(C[C@H](N)C(=O)N[C@H]2[C@@H](O)[C@H](n3cnc4c(N(C)C)ncnc43)O[C@@H]2CO)cc1 [PUROMYCIN] | 10 µM |  |  |  |  |  |  |  |
| CN(C)[C@@H]1C(O)=C(C(N)=O)C(=O)[C@@]2(O)C(O)=C3C(=O)c4c(O)cccc4[C@@](C)(O)[C@H]3C[C@@H]12 [TETRACYCLINE] |  | 0.25 µg/mL (≈ 0.563 µM) | 0.125 µg/mL (≈ 0.281 µM) | 4 µg/mL (≈ 9 µM) | 16 µg/mL (≈ 36 µM) | 0.125 µg/mL (≈ 0.281 µM) |  |  |
| O=C1C=C[C@]2(O[C@@H]3c4c2ccc(O)c4C(=O)[C@@H]2O[C@H]32)c2cccc(O)c21 [URNUCRATIN A] | > 100 µM | 2 µg/mL (≈ 5.74 µM) | 2 µg/mL (≈ 5.74 µM) | 1 µg/mL (≈ 2.87 µM) | 0.5 µg/mL (≈ 1.44 µM) | 0.5 µg/mL (≈ 1.44 µM) | inactive | inactive |
| COc1cccc2c1C(=O)C=C[C@]21O[C@@H]2c3c1ccc(O)c3C(=O)[C@@H]1O[C@H]21 [URNUCRATIN B] | > 100 µM | 8 µg/mL (≈ 22.1 µM) | 8 µg/mL (≈ 22.1 µM) | 8 µg/mL (≈ 22.1 µM) | 8 µg/mL (≈ 22.1 µM) | 4 µg/mL (≈ 11 µM) | inactive | inactive |
| COc1cccc2c1C(=O)C=C[C@]21O[C@@H]2c3c1ccc(O)c3[C@H](O)[C@@H]1O[C@@H]12 [URNUCRATIN C] | > 100 µM | 64 µg/mL (≈ 176 µM) | 64 µg/mL (≈ 176 µM) | 64 µg/mL (≈ 176 µM) | 64 µg/mL (≈ 176 µM) | 64 µg/mL (≈ 176 µM) | inactive | inactive |
| CN[C@H](CC(C)C)C(=O)N[C@H]1C(=O)N[C@@H](CC(N)=O)C(=O)N[C@H]2C(=O)N[C@H]3C(=O)N[C@H](C(=O)N[C@H](C(=O)O)c4cc(O)cc(O)c4-c4cc3ccc4O)[C@H](O)c3ccc(c(Cl)c3)Oc3cc2cc(c3O[C@@H]2O[C@H](CO)[C@@H](O)[C@H](O)[C@H]2O[C@H]2C[C@](C)(N)[C@H](O)[C@H](C)O2)Oc2ccc(cc2Cl)[C@H]1O [VANCOMYCIN] |  |  |  | 64 µg/mL (≈ 44.2 µM) | 2 µg/mL (≈ 1.38 µM) | 1 µg/mL (≈ 0.69 µM) |  |  |
